We go through 13 molecules from patent US5905077A, “Inhibitors of HIV protease useful for the treatment of AIDS” (Eli Lilly and Company, priority 1997, dated 1999).

The structures appear in SMILES notation. Converted amounts (≈) assume the structure as drawn. Like-named read-outs stand apart in the source and are kept apart here.

As usually defined, the IC50 is the midpoint of a concentration-inhibition curve. The low end stands for greater potency in that assay, the high end for weaker potency in that assay.

The target of the assay is T1, HIV-1 protease (Human immunodeficiency virus type 1 group M subtype B, UniProt P04585).
T1 construct: Purified HIV-1 protease was obtained as described above; made in house; host or cells: E. coli K12 L507/pHP10D (NRRL B-18560)
As to the kind of experiment: biochemical. The assay is classed as biochemical. Here is the method:
E. Fluorescence HIV-1 Protease Inhibitor Assay
The following buffers and solutions are used in the Fluorescence HIV-1 Protease Inhibitor Assay:
To each well of a round bottom, 96-well plate is added 20 μL of the Enzyme Solution followed by 10 μL of the compound to be evaluated in a 20% aqueous dimethylsulfoxide solution. Purified HIV-1 protease was obtained as described above. The resulting solution is incubated for one hour at room temperature and then 20 μL of a solution containing the substrate, prepared above, in MES-ALB buffer (1.5 μl/mL) is added to each well. The solutions are then incubated for 16 hours at room temperature and then each well is diluted with 150 μL of MES-ALB buffer.
To each well of a second round bottom, 96-well Pandex plate is added 25 μL of the Avidin Coated Beads Solution. Then, to each well is added 25 μL of the diluted incubation solutions, prepared above. The solutions are mixed thoroughly and the plates are loaded into a Pandex® machine, washed, evacuated and read. Sample detection was performed by excitation at 485 nm, reading the resulting epifluorescence at 535 nm.

In turn, `CC(C)(C)NC(=O)[C@@H]1CN(Cc2cccnc2)CCN1C[C@@H](O)[C@H](Cc1ccccc1)NC(=O)[C@@H](CS(=O)(=O)c1ccc(F)cc1)NS(C)(=O)=O` (relative stereo) [Example 46] gave an IC50 of 1230 pM.

As to `CC(=O)NC(CSCc1ccccc1)C(=O)NC(Cc1ccccc1)C(O)CN1CC2CCCCC2CC1C(=O)NC(C)(C)C` (stereo not drawn) [Example 33, [2R-(2R*,3R*,6R*,3'S*,4a'S*,8a'S*)]-N(t-Butyl)-2'-[2-hydroxy-3-phenylmethyl-4-aza-5-oxo-6-N(ethanoyl)amino-7-phenylmethylthio]heptyl decahydroisoquinoline-3'-carboxamide], where the note is “pH 5.5”, 1100 pM corresponded to half-maximal inhibition (IC50). Molecule `CC(=O)N[C@H](CS(=O)(=O)c1ccc2ccccc2c1)C(=O)N[C@@H](Cc1ccccc1)[C@H](O)CN1C[C@H]2CCCC[C@H]2C[C@H]1C(=O)NC(C)(C)C` [Example 36, [2R-(2R*,3R*,6R*,3'S*,4a'S*,8a'S*)]-N(t-Butyl)-2'-[2-hydroxy-3-phenylmethyl-4-aza-5-oxo-6-N(ethanoyl)amino-7-naphth-2ylsulfonyl]heptyl decahydroisoquinoline-3'-carboxamide] showed an IC50 of 426 pM. The same measure, in the same setting: the value for `CC(C)(C)NC(=O)[C@@H]1C[C@@H]2CCCC[C@@H]2CN1C[C@@H](O)[C@H](Cc1ccccc1)NC(=O)[C@@H](CSc1ccc(F)cc1)NS(C)(=O)=O` [Example 37, [2R-(2R*,3R*,6R*,3'S*,4a'S*,8a'S*)]-N(t-Butyl)-2'-[2-hydroxy-3-phenylmethyl-4-aza-5-oxo-6-N(methylsulfonyl)amino-7-p-fluoro-phenylthio]heptyl decahydroisoquinoline-3'-carboxamide] was 5320 pM; that for `CC(C)(C)NC(=O)[C@@H]1C[C@@H]2CCCC[C@@H]2CN1C[C@@H](O)[C@H](Cc1ccccc1)NC(=O)[C@@H](C[S+]([O-])c1ccc(F)cc1)NS(C)(=O)=O` (stereo partly drawn) [Example 38, [2R-(2R*,3R*,6R*,3'S*,4a'S*,8a'S*)]-N(t-Butyl)-2'-[2-hydroxy-3-phenylmethyl-4-aza-5-oxo-6-N(methylsulfonyl)amino-7-p-fluoro-phenylsulfinyl]heptyl decahydroisoquinoline-3'-carboxamide] was 722 pM; that for `CC(C)(C)NC(=O)[C@@H]1C[C@@H]2CCCC[C@@H]2CN1C[C@@H](O)[C@H](Cc1ccccc1)NC(=O)[C@@H](CS(=O)(=O)c1ccc(F)cc1)NS(C)(=O)=O` [Example 39, [2R-(2R*,3R*,6R*,3'S*,4a'S*,8a'S*)]-N(t-Butyl)-2'-[2-hydroxy-3-phenylmethyl-4-aza-5-oxo-6-N(methylsulfonyl)amino-7-p-fluoro-phenylsulfonyl]heptyl decahydroisoquinoline-3'-carboxamide] was 846 pM.

`CC(C)(C)NC(=O)[C@@H]1C[C@@H]2CCCC[C@@H]2CN1C[C@@H](O)[C@H](Cc1ccccc1)NC(=O)[C@@H](CS(=O)(=O)c1ccc(F)cc1)NS(C)(=O)=O` [Example 40, [2R-(2R*,3R*,6R*,3'S*,4a'S*,8a'S*)]-N(t-Butyl)-2'-[2-hydroxy-3-phenylmethyl-4-aza-5-oxo-6-N(methylsulfonyl)amino-7-p-fluoro-phenylsulfonyl]heptyl decahydroisoquinoline-3'-carboxamide] showed an IC50 of 635 pM. On the same count and under the same terms, the value for `CC(C)(C)NC(=O)[C@@H]1C[C@@H]2CCCC[C@@H]2CN1C[C@@H](O)[C@H](Cc1ccccc1)NC(=O)[C@@H](CSc1ccc2ccccc2c1)NS(C)(=O)=O` [Example 41, [2R-(2R*,3R*,6R*,3'S*,4a'S*,8a'S*)]-N(t-Butyl)-2'-[2-hydroxy-3-phenylmethyl-4-aza-5-oxo-6-N(methylsulfonyl)amino-7-naphth-2-ylthio]heptyl decahydroisoquinoline-3'-carboxamide] was 7760 pM; that for `CC(C)(C)NC(=O)[C@@H]1C[C@@H]2CCCC[C@@H]2CN1C[C@@H](O)[C@H](Cc1ccccc1)NC(=O)[C@@H](C[S+]([O-])c1ccc2ccccc2c1)NS(C)(=O)=O` (stereo partly drawn) [Example 42, [2R-(2R*,3R*,6R*,3'S*,4a'S*,8a'S*)]-N(t-Butyl)-2'-[2-hydroxy-3-phenylmethyl-4-aza-5-oxo-6-N(methylsulfonyl)amino-7-naphth-2-ylsulfinyl]heptyl decahydroisoquinoline-3'-carboxamide] was 621 pM; that for `CC(C)(C)NC(=O)[C@@H]1C[C@@H]2CCCC[C@@H]2CN1C[C@@H](O)[C@H](Cc1ccccc1)NC(=O)[C@@H](CS(=O)(=O)c1ccc2ccccc2c1)NS(C)(=O)=O` [Example 44, [2R-(2R*,3R*,6R*,3'S*,4a'S*,8a'S*)]-N(t-Butyl)-2'-[2-hydroxy-3-phenylmethyl-4-aza-5-oxo-6-N(methylsulfonyl)amino-7-naphth-2-ylsulfonyl]heptyl decahydroisoquinoline-3'-carboxamide] was 202 pM.

Molecule `CC(C)(C)NC(=O)[C@@H]1C[C@@H]2CCCC[C@@H]2CN1C[C@@H](O)[C@H](CSc1ccccc1)NC(=O)[C@@H](CS(=O)(=O)c1ccc(F)cc1)NS(C)(=O)=O` [Example 47] showed an IC50 of 10900 pM. Regarding `CC(C)(C)NC(=O)[C@@H]1C[C@@H]2CCCC[C@@H]2CN1C[C@@H](O)[C@H](CSc1ccccc1)NC(=O)[C@@H](CS(=O)(=O)c1ccc2ccccc2c1)NS(C)(=O)=O` [Example 48], under “read-out: Fluorescence Assay IC65 (65% inhibition at 0.16 ng/mL)”, the IC65 was 0.16 ng/mL (≈ 0.207 nM).

On to `CC(=O)N[C@H](CSCc1ccccc1)C(=O)N[C@@H](Cc1ccccc1)[C@H](O)CN1C[C@H]2CCCC[C@H]2C[C@H]1C(=O)NC(C)(C)C` [Example 49, [2R-(2R*,3R*,6R*,3'S*,4a'S*,8a'S*)]-N(t-Butyl)-2'-[2-hydroxy-3-phenylmethyl-4-aza-5-oxo-6-N(ethanoyl)amino-7-phenylmethylthio]heptyl decahydroisoquinoline-3'-carboxamide], for which half-maximal inhibition (IC50) required 1100 pM.
